Source: the NIST ThermoML archive (doi:10.1021/je201334p)

Assay: xn = mol fraction of the nth substance listed
Details: 101 kPa, Liquid; for speed of sound: Sing-around technique in a fixed-path interferometer; for mass density: Vibrating tube method

CCCC[n+]1cccc(C)c1.O=S(=O)([O-])C(F)(F)F [1-butyl-3-methylpyridinium trifluoromethanesulfonate] + O
Details | mass density, 288.15 K [kg/m3] | mass density, 298.15 K [kg/m3] | speed of sound, 288.15 K [m/s] | speed of sound, 298.15 K [m/s] | speed of sound, 308.15 K [m/s]
x2 = 0 | 1287.07 | 1279.41 | 1436.1 | 1412.3 | 1389.6
x2 = 0.0794 | 1285.23 | 1277.62 | 1439.2 | 1415.5 | 1392.5
x2 = 0.1517 | 1283.28 | 1275.63 | 1442.3 | 1418.7 | 1395.8
x2 = 0.2502 | 1279.99 | 1272.28 | 1447.7 | 1424.3 | 1401.5
x2 = 0.3515 | 1275.76 | 1268 | 1454.3 | 1431.2 | 1408.5
x2 = 0.4528 | 1270.21 | 1262.4 | 1463 | 1440 | 1417.4
x2 = 0.5628 | 1261.9 | 1254.01 | 1475.6 | 1452.9 | –
x2 = 0.6561 | 1251.55 | 1243.59 | 1489.9 | 1467.6 | –
x2 = 0.7494 | 1235.48 | 1227.52 | 1508.6 | 1487.4 | –
x2 = 0.8383 | 1208.29 | 1200.56 | 1530.4 | 1512.5 | –
x2 = 0.9201 | 1155.76 | 1149.07 | 1548.9 | 1540.1 | –
x2 = 0.9603 | 1103.57 | 1098.18 | 1553.2 | 1553.5 | –
